Where “and” joins values, the source holds several entries; their conditions need not be identical. Equal entries are not always repeated.
Tested on: GEMS receptors with CBPA11 (BclXL–LD3 and BclXLhigh variants), STAT3-driven SEAP in HEK293T cells
Assay: GEMS SEAP reporter assay, CBPA11 (BclXLhigh, LD3-v and BclXL-v variants) with A-1155463
Format: cell-based
Set-up: key to Raw data (SEAP) / SEAP, replicate values / Raw data of Figure 5b / Raw data Figure 5e / Raw data of Independent repeat of CBPA11-v1 vs CBPA11-v1-LD3v3 / Raw data of Independent repeat of CBPA11-v3 vs CBPA11-v3-LD3v3 / Raw data of Figure 5b, CBPA11-v1-LD3v3 (SEAP reporter raw value, single replicate) / Raw data of Figure 5b, CBPA11-v1 (SEAP reporter raw value, single replicate): SEAP activity in U/L in culture supernatant
Conditions: for Normalized data (SEAP) / Raw data (SEAP): SuppFigure 9c, LD3v3
Description: To rationally design a CBP responding to a chemical input, we used BclXL as the druglow receptor, LD3 as the designed binder and a designed BclXL variant as the drughigh receptor (referred to as BclXLhigh) to construct a CBP responsive to BclXL inhibitors (Fig. 4a). To design BclXLhigh, we used a multistate design computational protocol described elsewhere[26] […] Thus, BclXLhigh-v(1–3) were chosen as the functional drughigh receptors, resulting in three A-1155463-controlled CBPs (referred to as CBPA11-v(1–3)) (Fig. 4c–e).
HEK293T cells were seeded in a 96-well plate 24 h before transfection. The transfection mix in each well consisted of 3 ng of constitutive human CMV promoter driven mammalian STAT3 expression vector (PhCMV-STAT3-pA), 30 ng of STAT3-induced reporter expression (OStat3-PhCMVmin-SEAP-pA) and 50 ng of expression vectors for each GEMS receptor chain (PSV40-IgK-(drughigh receptor)-EpoRm-IL-6RBm-pA and PSV40-IgK-(druglow receptor-GGGGSX3-LD3)-EpoRm-IL-6RBm-pA). For the specific drughigh receptor and druglow receptor used in the different cellular assays, they are indicated as wild type or with mutations. Then, plasmid DNA was mixed with 50 μl opti-MEM (Thermo Fisher) and 600 ng of polyethyleneimine (Polysciences, catalog no. 24765-1). For drug treatment experiments, drugs were added 12 h post-transfection and incubated with cells for 24 h before the SEAP reporter detection assay.
SEAP activity (U l^−1) in cell culture supernatants was quantified by kinetic measurements at 405 nm (1 minute per measurement for 30 cycles) of absorbance increase due to phosphatase-mediated hydrolysis of para-nitrophenyl phosphate (pNPP).
Binding affinities of SPR drug competition assays were calculated using three-parameter nonlinear regression in GraphPad Prism (v.8.3.0). Representative data of cell assays are presented as individual values and mean values (bars). n = 3 refers to biological replicates. All IC50 or EC50 values of cell assays reported were calculated using four-parameter nonlinear regression ± s.d. Bandpass features of cutoff concentrations and Bandwidth90% were estimated based on the curve fitted using bell-shaped curve nonlinear regression in GraphPad Prism (v.8.3.0). […]
Supplementary Figure 4: Design, screening and validation of BclXLhigh variants. a) Screening of BclXLhigh variants in the GEMS platform. […]
Dissociation constant measurement of BclXLhigh-v(1-3) and LD3. Equilibrium curves are fitted using […]
BclXLhigh-v1 (purple), BclXLhigh-v2 (blue), […]
a) Bcl2high-based bandpass filter designs were developed and to respond to different concentrations of […]
corresponding inhibitor. c) Screening of Bcl2high-based bandpass filter variants in the GEMS platform.
The designed binder LD3 was fused to the druglow-receptor (PSV40-IgK-Bcl2-LD3-EpoRm-IL-6RBm-pA) in one EpoR chain and Bcl2high variants with the insensitive Bcl2 (iBcl2) as control in the other EpoR chain (PSV40-IgK-Bcl2high-EpoRm-IL-6RBm-pA). HEK293T cells were transfected with indicated […]
the mean of six biological replicates ± s.d., overlaid with a scatter dot plot of the original data points.
(1 picture or pasted object on this page, not shown here)
Supplementary Figure 6: Binding affinities and drug resistances of Bcl2high-v(2,4,5) assessed by […]
a) Measurement of dissociation constants for Bcl2high-v(2,4,5) and LD3 interactions. Equilibrium curves […]
Bcl2high-v(2,4,5) measured by SPR. 5 μM of Bcl2 or indicated variants were mixed with 10 μM of […]
Bcl2high-v2 (red), Bcl2high-v4
Supplementary Figure 7: Screening of LD3 variants in CBPA11-v(1-3) and raw data of CBPA11-v(1,3) with LD3-v3 variant. a-c) Screening of LD3 and LD3-v(1-3) variants in complex with BclXL for more sensitive CBPA11-v1 (a), CBPA11-v2 (b), CBPA11-v3 (c) in the GEMS platform. The LD3 variants replaced the role of LD3 (PSV40-IgK-BclXL-LD3-v(1-3)-EpoRm-IL-6RBm-pA) in one EpoR chain and BclXLhigh-v(1-3) in the other EpoR chain (PSV40-IgK-BclXLhigh-V(1-3)-EpoRm-IL-6RBm-pA). HEK293T cells were transfected with […]

Compound: CN(C)CC#Cc1ccc(OCCCc2sc(N3CCc4cccc(C(=O)Nc5nc6ccccc6s5)c4C3)nc2C(=O)O)c(F)c1 [A-1155463]
- Normalized data (SEAP) (A-1155463 10 nM): 57.1742
- Raw data (SEAP) (A-1155463 10 nM): 4.199
- Normalized data (SEAP) (A-1155463 31.6 nM): 64.0307
- Raw data (SEAP) (A-1155463 31.6 nM): 4.702
- Normalized data (SEAP) (A-1155463 100 nM): 100
- Raw data (SEAP) (A-1155463 100 nM): 7.344
- Normalized data (SEAP) (A-1155463 316 nM): 98.6857
- Raw data (SEAP) (A-1155463 316 nM): 7.247
- Normalized data (SEAP) (A-1155463 1000 nM): 76.9661
- Raw data (SEAP) (A-1155463 1000 nM): 5.652
- Normalized data (SEAP) (A-1155463 3160 nM): 98.598
- Raw data (SEAP) (A-1155463 3160 nM): 7.241
- Normalized data (SEAP) (A-1155463 10000 nM): 93.3297
- Raw data (SEAP) (A-1155463 10000 nM): 6.854
- SEAP, replicate values (Supplementary Figure 9e, CBPA11-v3-BclXLv2, A-1155463 1 nM): 84.4482 and 81.7463 and 104.541
- SEAP, replicate values (Supplementary Figure 9e, CBPA11-v3-BclXLv2, A-1155463 3.18 nM): 146.322 and 134.178 and 165.303
- SEAP, replicate values (Supplementary Figure 9e, CBPA11-v3-BclXLv2, A-1155463 10 nM): 324.719 and 293.474 and 344.378
- SEAP, replicate values (Supplementary Figure 9e, CBPA11-v3-BclXLv2, A-1155463 31.8 nM): 360.563 and 353.899 and 371.872
- SEAP, replicate values (Supplementary Figure 9e, CBPA11-v3-BclXLv2, A-1155463 100 nM): 397.777 and 391.029 and 415.369
- SEAP, replicate values (Supplementary Figure 9e, CBPA11-v3-BclXLv2, A-1155463 318 nM): 374.208 and 326.503 and 405.592
- SEAP, replicate values (Supplementary Figure 9e, CBPA11-v3-BclXLv2, A-1155463 1000 nM): 326.827 and 274.864 and 352.239
- SEAP, replicate values (Supplementary Figure 9e, CBPA11-v3-BclXLv2, A-1155463 3180 nM): 224.895 and 197.696 and 225.125
- SEAP, replicate values (Supplementary Figure 9e, CBPA11-v3, A-1155463 1 nM): 77.8998 and 72.2772 and 68.2722
- SEAP, replicate values (Supplementary Figure 9e, CBPA11-v3, A-1155463 3.18 nM): 101.26 and 74.5174 and 69.017
- SEAP, replicate values (Supplementary Figure 9e, CBPA11-v3, A-1155463 10 nM): 279.56 and 237.506 and 229.509
- SEAP, replicate values (Supplementary Figure 9e, CBPA11-v3, A-1155463 31.8 nM): 420.603 and 418.534 and 369.593
- SEAP, replicate values (Supplementary Figure 9e, CBPA11-v3, A-1155463 100 nM): 495.942 and 494.207 and 527.219
- SEAP, replicate values (Supplementary Figure 9e, CBPA11-v3, A-1155463 318 nM): 528.894 and 526.095 and 525.969
- SEAP, replicate values (Supplementary Figure 9e, CBPA11-v3, A-1155463 1000 nM): 429.812 and 444.52 and 449.13
- SEAP, replicate values (Supplementary Figure 9e, CBPA11-v3, A-1155463 3180 nM): 188.374
- SEAP, replicate values (Supplementary Figure 9d, CBPA11-v1-BclXLv2, A-1155463 1 nM): 111.205 and 87.5973 and 101.043
- SEAP, replicate values (Supplementary Figure 9d, CBPA11-v1-BclXLv2, A-1155463 3.18 nM): 157.154 and 178.429 and 193.635
- SEAP, replicate values (Supplementary Figure 9d, CBPA11-v1-BclXLv2, A-1155463 10 nM): 436.402 and 372.407 and 451.931
- SEAP, replicate values (Supplementary Figure 9d, CBPA11-v1-BclXLv2, A-1155463 31.8 nM): 433.431 and 447.679 and 460.586
- SEAP, replicate values (Supplementary Figure 9d, CBPA11-v1-BclXLv2, A-1155463 100 nM): 510.537 and 467.35 and 481.779
- SEAP, replicate values (Supplementary Figure 9d, CBPA11-v1-BclXLv2, A-1155463 318 nM): 466.109 and 461.812 and 531.315
- SEAP, replicate values (Supplementary Figure 9d, CBPA11-v1-BclXLv2, A-1155463 1000 nM): 444.141 and 425.472 and 444.224
- SEAP, replicate values (Supplementary Figure 9d, CBPA11-v1-BclXLv2, A-1155463 3180 nM): 353.967 and 340.947 and 373.905
- SEAP, replicate values (Supplementary Figure 9d, CBPA11-v1-BclXLv2, A-1155463 10000 nM): 194.487 and 169.62 and 189.065
- SEAP, replicate values (Supplementary Figure 9d, CBPA11-v1, A-1155463 1 nM): 63.0929 and 67.5149 and 84.3456
- SEAP, replicate values (Supplementary Figure 9d, CBPA11-v1, A-1155463 3.18 nM): 70.097 and 95.813 and 111.853
- SEAP, replicate values (Supplementary Figure 9d, CBPA11-v1, A-1155463 10 nM): 455.879 and 489.769 and 488.832
- SEAP, replicate values (Supplementary Figure 9d, CBPA11-v1, A-1155463 31.8 nM): 620.201 and 681.136 and 678.515
- SEAP, replicate values (Supplementary Figure 9d, CBPA11-v1, A-1155463 100 nM): 962.669 and 957.215 and 954.472
- SEAP, replicate values (Supplementary Figure 9d, CBPA11-v1, A-1155463 318 nM): 973.295 and 858.467 and 847.573
- SEAP, replicate values (Supplementary Figure 9d, CBPA11-v1, A-1155463 1000 nM): 855.269 and 763.206 and 684.986
- SEAP, replicate values (Supplementary Figure 9d, CBPA11-v1, A-1155463 3180 nM): 503.783 and 501.256 and 493.903
- SEAP, replicate values (Supplementary Figure 9d, CBPA11-v1, A-1155463 10000 nM): 194.615 and 191.032 and 215.159

From article PMC11062894, “Protein-based bandpass filters for controlling cellular signaling with chemical inputs” (Nature Chemical Biology, 2023)
